{"source": "patent US20260240760A1", "about": "“Injectable Compositions of Vitamers of Vitamin B12 and Uses Thereof” (Nevakar Injectables Inc., priority 2023, published 2026)", "key": {"[1]": {"conditions": "within 48 hours of injection; current standard-of-care injectable compositions; cited from earlier work"}, "[2]": {"assay": "Cyanocobalamin concentration and appearance of polymer/DMSO compositions and stock solutions, with or without pamoic acid", "format": "physicochemical", "conditions": "pamoic acid present relative to not present", "procedure": "Compositions comprising 25% polymer and cyanocobalamin either with or without pamoic acid (i.e., to form a cyanocobalamin pamoate salt) in 100% DMSO were prepared starting from 12 mg/g stock solutions, as shown in Tables 2 and 3."}}, "data": [{"substance": "vitamin B12", "values": [{"measurement": "vitamin B12 excreted in urine", "setting": "[1]", "value": "≤ 98", "unit": "%"}]}, {"substance": "cyanocobalamin pamoate", "values": [{"measurement": "Dissolution of cyanocobalamin in compositions comprising poly(lactide-co-glycolide) and DMSO", "setting": "[2]", "value": "dissolves significantly more effectively"}]}]}
